# Structures can show the parent of a compound that is named as a salt. Where two headings read alike, the source gives them in different places.
# Columns and labels:
# [1] = target: T1, MMP-1 (Homo sapiens, UniProt P03956); assay: MMP-1 inhibition (thiopeptide or fluorescent peptide substrate); assay type: biochemical; conditions: read-out: MMP1 IC50
# T1 sequence (P03956 100-469): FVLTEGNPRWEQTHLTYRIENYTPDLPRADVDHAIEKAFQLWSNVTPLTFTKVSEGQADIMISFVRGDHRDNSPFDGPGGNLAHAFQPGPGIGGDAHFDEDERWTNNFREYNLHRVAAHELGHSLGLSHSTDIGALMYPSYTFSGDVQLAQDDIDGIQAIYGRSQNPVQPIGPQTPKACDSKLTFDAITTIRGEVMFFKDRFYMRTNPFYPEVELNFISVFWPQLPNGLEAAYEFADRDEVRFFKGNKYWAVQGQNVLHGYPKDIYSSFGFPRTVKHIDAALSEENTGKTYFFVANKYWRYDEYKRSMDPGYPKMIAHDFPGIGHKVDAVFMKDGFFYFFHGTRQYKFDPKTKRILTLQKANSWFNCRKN
# [2] = target: MMP-9 (Homo sapiens, UniProt P14780); assay: MMP-9 inhibition (thiopeptide or fluorescent peptide substrate); assay type: biochemical; conditions: read-out: MMP9 IC50
# Chain of MMP-9 (P14780 94-707): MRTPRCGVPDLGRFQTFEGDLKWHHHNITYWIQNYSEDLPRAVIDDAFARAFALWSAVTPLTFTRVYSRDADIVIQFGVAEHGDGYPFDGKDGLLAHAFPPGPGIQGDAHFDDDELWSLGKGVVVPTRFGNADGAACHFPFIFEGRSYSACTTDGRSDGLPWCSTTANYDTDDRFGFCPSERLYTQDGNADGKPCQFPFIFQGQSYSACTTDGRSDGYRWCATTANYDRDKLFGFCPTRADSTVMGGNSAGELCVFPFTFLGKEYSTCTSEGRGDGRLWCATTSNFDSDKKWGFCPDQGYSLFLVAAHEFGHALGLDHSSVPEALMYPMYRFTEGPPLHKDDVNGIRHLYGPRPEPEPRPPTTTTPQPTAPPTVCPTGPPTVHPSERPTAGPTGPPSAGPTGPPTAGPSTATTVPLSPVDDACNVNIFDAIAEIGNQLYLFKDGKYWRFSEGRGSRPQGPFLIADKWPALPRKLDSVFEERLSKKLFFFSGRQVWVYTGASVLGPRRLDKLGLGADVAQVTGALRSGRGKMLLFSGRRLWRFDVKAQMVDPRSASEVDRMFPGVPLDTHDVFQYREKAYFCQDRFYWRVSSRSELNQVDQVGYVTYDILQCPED
SMILES,IC50 [1],IC50 [2],IC50 ([1]; cells that print nM)
"CC#CCOc1ccc(S(=O)(=O)CC2(C(=O)NO)CCN(C(=O)C(C)(CO)CO)CC2)cc1 [Example 43, 4-({[4-(2-Butynyloxy)phenyl]sulfonyl}methyl)-N-hydroxy-1-[3-hydroxy-2-(hydroxymethyl)-2-methylpropanoyl]-4-piperidinecarboxamide]",~10000 nM,> 10000 nM,
"CC#CCOc1ccc(S(=O)(=O)C2(C(=O)NO)CCN(Cc3ccc(Cl)cc3)CC2)cc1 [Example 3, 4-(4-But-2-ynyloxy-benzenesulfonyl)-1-(4-chloro-benzyl)-piperdine-4-carboxylic acid hydroxyamide]",9000 nM,280 nM,
"CC#CCOc1ccc(S(=O)(=O)C2(C(=O)NO)CCN(C(=O)C(C)(CO)CO)CC2)cc1 [Example 74, 4-(4-But-2-ynyloxybenzenesulfonyl)-N-hydroxy-1-[3-hydroxy-2-(hydroxymethyl)-2-methylpropanoyl]-4-piperidinecarboxamide]",4340 nM,963 nM,
"CC#CCOc1ccc(S(=O)(=O)C2(C(=O)NO)CCN(Cc3ccc(C(N)=O)cc3)CC2)cc1 [Example 79, 1-[4-(Aminocarbonyl)benzyl]-4-{[4-(2-butynyloxy)phenyl]sulfonyl}-N-hydroxy-4-piperidinecarboxamide hydrochloride]",2420 nM,129 nM,
"CC#CCOc1ccc([S+]([O-])C2(C(=O)NO)CCN(C(=O)OC(C)(C)C)CC2)cc1 (stereo not shown) [Example 80, tert-butyl 4-{[4-(but-2-ynyloxy)phenyl]sulfinyl}-4-[(hydroxyamino)carbonyl]piperidine-1-carboxalate]",186000 nM,122 nM,
"CC#CCOc1ccc(S(=O)(=O)C2(C(=O)NO)CCN(Cc3ccc(Br)cc3)CC2)cc1 [Example 1, 1-(4-Bromo-benzyl)-4-(4-but-2-ynyxoy-benzenesulfonyl)-piperdine-4-carboxylic acid hydroxyamide]",3300 nM,385 nM,
"CC#CCOc1ccc([S+]([O-])C2(C(=O)NO)CCNCC2)cc1 (stereo not shown) [Example 81, 4-(4-(But-2-ynyloxy-benzenesulfinyl)-piperidine-4-carboxylic acid hydroxamide hydrochloride]",1880 nM,1040 nM,
"CC#CCOc1ccc(S(=O)(=O)C2(C(=O)NO)CCN(Cc3ccc(C(=O)O)cc3)CC2)cc1 [Example 78, 4-({4-{[4-(2-butynyloxy)phenyl]sulfonyl}-4-[(hydroxyamino)-carbonyl]-1-piperidinyl}methyl)benzoic acid hydrochloride]",1050 nM,364 nM,
"CC#CCOc1ccc(S(=O)(=O)CC2(C(=O)NO)CCN(C(C)=O)CC2)cc1 [Example 36, 1-Acetyl-4-[[[4-(2-butynyloxy)phenyl]sulfonyl]methyl]-N-hydroxy-4-piperidinecarboxamide]",3900 nM,2830 nM,
"CC#CCOc1ccc(S(=O)(=O)C2(C(=O)NO)CCN(S(=O)(=O)C(F)(F)F)CC2)cc1 [Example 69, 4-(4-But-2-ynyloxybenzenesulfonyl)-N-hydroxy-1-[(trifluoromethyl)-sulfonyl]-4-piperidinecarboxamide]",4000 nM,1250 nM,
"CC#CCOc1ccc(S(=O)(=O)C2(C(=O)NO)CCN(C(=O)OCC)CC2)cc1 [Example 68, Ethyl 4-(4-but-2-ynyloxybenzenesulfonyl)-4-[(hydroxyamino)-carbonyl]-1-piperidinecarboxylate]",2250 nM,1330 nM,
"CC#CCOc1ccc(SCC2(C(=O)NO)CCN(C(=O)OC(C)(C)C)CC2)cc1 [Example 30, tert-butyl-4-({[4-(2-butynyloxy)phenyl]sulfanyl}methyl)-4-[(hydroxyamino)-carbonyl]-1-piperidinecarboxylate]",> 10000 nM,5900 nM,

# Now from value to compound:
IC50 [1],IC50 [2],IC50 ([1]; cells that print nM),SMILES
> 10000 nM,> 10000 nM,,"CC#CCOc1ccc([S+]([O-])CC2(C(=O)NO)CCN(C(=O)OC(C)(C)C)CC2)cc1 (stereo not shown) [Example 32, tert-Butyl-4-({[4-(2-butynyloxy)phenyl]sulfinyl}methyl)-4-[(hydroxyamino)-carbonyl]-1-piperidinecarboxylate]"
143 nM,5.8 nM,,"C#CCOc1ccc(S(=O)(=O)C2(C(=O)NO)CCN(Cc3ccc(Br)cc3)CC2)cc1 [Example 11, 1-(4-Bromo-benzyl)-4-(4-prop-2-ynyloxy-benzenesulfonyl)-piperdine-4-carboxylic acid hydroxyamide]"
707 nM,425 nM,,"CC#CCOc1ccc(S(=O)(=O)CC2(C(=O)NO)CCN(C(=O)OCc3ccccc3)CC2)cc1 [Example 40, Benzyl 4-({[4-(2-butynyloxy)phenyl]sulfonyl}methyl)-4-[(hydroxyamino)-carbonyl]-1-piperidinecarboxylate]"
,568 nM,2640 nM,"CC#CCOc1ccc(S(=O)(=O)C2(C(=O)NO)CCOCC2)cc1 [Example 20, 4-{[4-(2-butynyloxy)phenyl]sulfonyl}-N-hydroxytetrahydro-2H-pyran-4-carboxamide]"
> 10000 nM,2740 nM,,"CC#CCOc1ccc(S(=O)(=O)C2(C(=O)NO)CCCN(Cc3ccc(Cl)cc3)C2)cc1 (stereo not shown) [Example 25, 3-{[4-(2-butynyloxy)phenyl]sulfonyl}-1-(4-chlorobenzyl)-N-hydroxy-3-piperidinecarboxamide]"
~10000 nM,1440 nM,,CC#CCOc1ccc(S(=O)(=O)CC2(C(=O)NO)CCN(C(=O)NC(C)(C)C)CC2)cc1 [Example 38]
,160 nM,3210 nM,"CC#CCOc1ccc(S(=O)(=O)C2(C(=O)NO)CCN(Cc3cccnc3)CC2)cc1 [Example 23, 4-{[4-(2-butynyloxy)phenyl]sulfonyl}-N-hydroxy-1-(3-pyridinylmethyl)-4-piperidine carboxamide]"
,2080 nM,5670 nM,"CC#CCOc1ccc(S(=O)(=O)C2(C(=O)NO)CCCN(CC)C2)cc1 (stereo not shown) [Example 24, 3-{[4-(2-Butynyloxy)phenyl]sulfonyl}-1-ethyl-N-hydroxy-3-piperidinecarboxamide]"
~10000 nM,1390 nM,,"CC#CCOc1ccc(S(=O)(=O)CC2(C(=O)NO)CCN(C(=O)OC(C)(C)C)CC2)cc1 [Example 34, tert-Butyl-4-({[4-(but-2-ynyloxy)phenyl]sulfonyl}methyl)-4-[(hydroxyamino)-carbonyl]piperidine-1-carboxylate]"
~10000 nM,> 10000 nM,,"CC#CCOc1ccc(S(=O)(=O)CC2(C(=O)NO)CCN(C(=O)C3(C)COC(C)(C)OC3)CC2)cc1 [Example 42, 4-({[4-(2-Butynyloxy)phenyl]sulfonyl}methyl)-N-hydroxy-1-[(2,2,5-trimethyl-1,3-dioxan-5-yl)carbonyl]-4-piperidinecarboxamide]"
15000 nM,1000 nM,,"O=C(NO)C1(S(=O)(=O)c2ccc(OCC#CCN3CCCCC3)cc2)CCN(Cc2ccc(Br)cc2)CC1 [Example 12, 1-(4-bromo-benzyl)-4-[4-(4-piperidin-1-yl-but-2-ynyloxy)-benzenesulfonyl]-piperidine-4-carboxylic acid hydroxyamide]"

# Reference: patent US6753337B2, “Alkynyl containing hydroxamic acid compounds as matrix metalloproteinase/tace inhibitors” (Wyeth Holdings Corporation, priority 1999, dated 2004)
